Legend:
ducksalad = assay: Test B flooded paddy test; type: in vivo, Heteranthera limosa; conditions: 1000 g ai/ha, visual rating, scale 0 to 100 (0 no effect, 100 complete control), 13 to 15 days
Outline: (§1)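 Each value is a visual 0–100 response rating taken against controls 13 to 15 days after treatment in the greenhouse. Plants received formulated chemical postemergence at the 1- to 4-leaf stage or, in flooded paddy, at the 2-leaf stage.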

blackgrass = assay: Test B postemergence herbicide test; type: in vivo, Alopecurus myosuroides; conditions: postemergence, visual rating, scale 0 (no effect) to 100 (complete control)
Outline: as §1

Surinam grass = assay: Test B pre-/postemergence herbicide test; type: in vivo, Urochloa decumbens; conditions: for Surinam Grass plant response rating (0 to 100 scale) / Plant response rating, Surinam Grass: 0 = no effect, 100 = complete control, preemergence; for Plant response rating, Surinam Grass / Surinam Grass plant response rating: visual rating; for Surinam Grass plant response rating: postemergence, scale 0 (no effect) to 100 (complete control)
Outline: (§2)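 Response was scored visually 13 to 15 days after treatment against untreated greenhouse controls, 0 meaning no effect and 100 complete control. Formulations (solvent mixture plus surfactant) went onto soil after planting, onto foliage of 1- to 4-leaf plants, and onto 2-leaf plants in a flooded paddy set including rice and barnyardgrass.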

velvetleaf = assay: Test B pre-/postemergence herbicide test; type: in vivo, Abutilon theophrasti; conditions: for Velvetleaf plant response rating (0 to 100 scale) / Plant response rating, Velvetleaf: 0 = no effect, 100 = complete control, preemergence; for Plant response rating, Velvetleaf / Velvetleaf plant response rating: visual rating; for Velvetleaf plant response rating: postemergence, scale 0 (no effect) to 100 (complete control)
Outline: as §2

rice [1] = assay: Test B pre-/postemergence herbicide test; type: in vivo, Oryza sativa; conditions: 0 = no effect, 100 = complete control, preemergence; for Rice plant response rating (0 to 100 scale): 125 g ai/ha; for Plant response rating, Rice: 500 g ai/ha, visual rating
Outline: as §2

large crabgrass = assay: Test B pre-/postemergence herbicide test; type: in vivo, Digitaria sanguinalis; conditions: for Crabgrass, Large plant response rating (0 to 100 scale) / Plant response rating, Crabgrass, Large: 0 = no effect, 100 = complete control, preemergence; for Plant response rating, Crabgrass, Large / Crabgrass, Large plant response rating: visual rating; for Crabgrass, Large plant response rating: postemergence, scale 0 (no effect) to 100 (complete control)
Outline: as §2

lambsquarters = assay: Test B pre-/postemergence herbicide test; type: in vivo, Chenopodium album; conditions: for Lambsquarters plant response rating (0 to 100 scale) / Plant response rating, Lambsquarters: 0 = no effect, 100 = complete control, preemergence; for Plant response rating, Lambsquarters / Lambsquarters plant response rating: visual rating; for Lambsquarters plant response rating: postemergence, scale 0 (no effect) to 100 (complete control)
Outline: as §2

giant foxtail = assay: Test B pre-/postemergence herbicide test; type: in vivo, Setaria faberi; conditions: for Foxtail, Giant plant response rating (0 to 100 scale) / Plant response rating, Foxtail, Giant: 0 = no effect, 100 = complete control, preemergence; for Plant response rating, Foxtail, Giant / Foxtail, Giant plant response rating: visual rating; for Foxtail, Giant plant response rating: postemergence, scale 0 (no effect) to 100 (complete control)
Outline: as §2

barnyardgrass [2] = assay: Test B pre-/postemergence herbicide test; type: in vivo, Echinochloa crus-galli; conditions: for Barnyardgrass plant response rating (0 to 100 scale) / Plant response rating, Barnyardgrass: 0 = no effect, 100 = complete control, preemergence; for Plant response rating, Barnyardgrass / Barnyardgrass plant response rating: visual rating; for Barnyardgrass plant response rating: postemergence, scale 0 (no effect) to 100 (complete control)
Outline: (§3)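 Evaluation is visual, comparing treated with control plants on a scale where 0 means no effect and 100 means full control. Treatments were preemergence, or postemergence on seedlings 2–18 cm tall, and held 13–15 days in the greenhouse.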

barnyardgrass [3] = assay: Test B flooded paddy test; type: in vivo, Echinochloa crus-galli; conditions: 1000 g ai/ha, visual rating, scale 0 to 100 (0 no effect, 100 complete control), 13 to 15 days
Outline: as §1

wild oat = assay: Test B postemergence herbicide test; type: in vivo, Avena fatua; conditions: postemergence, visual rating, scale 0 (no effect) to 100 (complete control)
Outline: (§4)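 Greenhouse test; postemergence application to plants at 1–4 leaves (2–18 cm); paddy species at 2 leaves; evaluated visually vs controls at 13–15 days; scale 0–100 (100 = complete control).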

cocklebur = assay: Test B pre-/postemergence herbicide test; type: in vivo, Xanthium strumarium; conditions: for Cocklebur plant response rating (0 to 100 scale) / Plant response rating, Cocklebur: 0 = no effect, 100 = complete control, preemergence; for Plant response rating, Cocklebur / Cocklebur plant response rating: visual rating; for Cocklebur plant response rating: postemergence, scale 0 (no effect) to 100 (complete control)
Outline: as §3

corn = assay: Test B pre-/postemergence herbicide test; type: in vivo, Zea mays; conditions: for Corn plant response rating (0 to 100 scale) / Plant response rating, Corn: 0 = no effect, 100 = complete control, preemergence; for Plant response rating, Corn / Corn plant response rating: visual rating; for Corn plant response rating: postemergence, scale 0 (no effect) to 100 (complete control)
Outline: as §2

rice [4] = assay: Test B flooded paddy test; type: in vivo, Oryza sativa; conditions: 1000 g ai/ha, visual rating, scale 0 to 100 (0 no effect, 100 complete control), 13 to 15 days
Outline: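 Postemergence plants were sprayed with formulated test chemicals at 2 to 18 cm height (1- to 4-leaf stage); paddy species were grown to the 2-leaf stage. After 13 to 15 days in a greenhouse, injury was rated visually against untreated controls on a 0–100 scale (0 = no effect, 100 = complete control).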

wheat = assay: Test B postemergence herbicide test; type: in vivo, Triticum aestivum; design: key to Wheat plant response rating: 0 = no effect, 100 = complete control; conditions: postemergence, visual rating, scale 0 (no effect) to 100 (complete control)
Outline: as §4

morningglory = assay: Test B pre-/postemergence herbicide test; type: in vivo, Ipomoea coccinea; conditions: for Plant response rating, Morningglory / Morningglory plant response rating: visual rating; for Morningglory plant response rating: postemergence, scale 0 (no effect) to 100 (complete control)
Outline: as §3

[5] = test system: small flower umbrella sedge; assay: Test B flooded paddy test; type: in vivo, Cyperus difformis; conditions: 1000 g ai/ha, visual rating, scale 0 to 100 (0 no effect, 100 complete control), 13 to 15 days
Outline: as §1

pigweed = assay: Test B pre-/postemergence herbicide test; type: in vivo, Amaranthus retroflexus; conditions: for Pigweed plant response rating (0 to 100 scale) / Plant response rating, Pigweed: 0 = no effect, 100 = complete control, preemergence; for Plant response rating, Pigweed / Pigweed plant response rating: visual rating; for Pigweed plant response rating: postemergence, scale 0 (no effect) to 100 (complete control)
Outline: as §2

[6] = 500 g ai/ha, 0 = no effect, 100 = complete control, preemergence

CCc1nn(C(C)(C)C)cc1C(=O)Nc1cc(C(=O)N(C)CC)ccc1F [Compound 224]
Ducksalad plant response rating (ducksalad): 80 | Blackgrass plant response rating (blackgrass; 125 g ai/ha): 0 | Blackgrass plant response rating (blackgrass; 500 g ai/ha): 10 | Surinam Grass plant response rating (0 to 100 scale) (Surinam grass; 125 g ai/ha): 60 | Plant response rating, Surinam Grass (Surinam grass; 500 g ai/ha): 100 | Surinam Grass plant response rating (Surinam grass; 125 g ai/ha): 10 | Surinam Grass plant response rating (Surinam grass; 500 g ai/ha): 20 | Velvetleaf plant response rating (0 to 100 scale) (velvetleaf; 125 g ai/ha): 70 | Plant response rating, Velvetleaf (velvetleaf; 500 g ai/ha): 100 | Velvetleaf plant response rating (velvetleaf; 125 g ai/ha): 20 | Velvetleaf plant response rating (velvetleaf; 500 g ai/ha): 60 | Rice plant response rating (0 to 100 scale) (rice [1]): 30 | Plant response rating, Rice (rice [1]): 80 | Crabgrass, Large plant response rating (0 to 100 scale) (large crabgrass; 125 g ai/ha): 30 | Plant response rating, Crabgrass, Large (large crabgrass; 500 g ai/ha): 100 | Crabgrass, Large plant response rating (large crabgrass; 125 g ai/ha): 10 | Crabgrass, Large plant response rating (large crabgrass; 500 g ai/ha): 20 | Lambsquarters plant response rating (0 to 100 scale) (lambsquarters; 125 g ai/ha): 100 | Plant response rating, Lambsquarters (lambsquarters; 500 g ai/ha): 100 | Lambsquarters plant response rating (lambsquarters; 125 g ai/ha): 60 | Lambsquarters plant response rating (lambsquarters; 500 g ai/ha): 70 | Foxtail, Giant plant response rating (0 to 100 scale) (giant foxtail; 125 g ai/ha): 10 | Plant response rating, Foxtail, Giant (giant foxtail; 500 g ai/ha): 70 | Foxtail, Giant plant response rating (giant foxtail; 125 g ai/ha): 20 | Foxtail, Giant plant response rating (giant foxtail; 500 g ai/ha): 30 | Barnyardgrass plant response rating (0 to 100 scale) (barnyardgrass [2]; 125 g ai/ha): 30 | Plant response rating, Barnyardgrass (barnyardgrass [2]; 500 g ai/ha): 90 | Barnyardgrass plant response rating (barnyardgrass [2]; 125 g ai/ha): 10 | Barnyardgrass plant response rating (barnyardgrass [2]; 500 g ai/ha): 30 | Barnyardgrass plant response rating (barnyardgrass [3]): 90 | Oat, Wild plant response rating (wild oat; 125 g ai/ha): 0 | Oat, Wild plant response rating (wild oat; 500 g ai/ha): 30 | Cocklebur plant response rating (0 to 100 scale) (cocklebur; 125 g ai/ha): 20 | Plant response rating, Cocklebur (cocklebur; 500 g ai/ha): 50 | Cocklebur plant response rating (cocklebur; 125 g ai/ha): 10 | Cocklebur plant response rating (cocklebur; 500 g ai/ha): 40 | Corn plant response rating (0 to 100 scale) (corn; 125 g ai/ha): 20 | Plant response rating, Corn (corn; 500 g ai/ha): 70 | Corn plant response rating (corn; 125 g ai/ha): 10 | Corn plant response rating (corn; 500 g ai/ha): 20 | Rice plant response rating (rice [4]): 90 | Wheat plant response rating (wheat; 125 g ai/ha): 0 | Wheat plant response rating (wheat; 500 g ai/ha): 30 | Plant response rating, Morningglory (morningglory; [6]): 30 | Morningglory plant response rating (morningglory; 125 g ai/ha): 30 | Morningglory plant response rating (morningglory; 500 g ai/ha): 70 | Sedge, Umbrella plant response rating [5]: 80 | Pigweed plant response rating (0 to 100 scale) (pigweed; 125 g ai/ha): 80 | Plant response rating, Pigweed (pigweed; 500 g ai/ha): 100 | Pigweed plant response rating (pigweed; 125 g ai/ha): 40 | Pigweed plant response rating (pigweed; 500 g ai/ha): 60

CCN(CC)C(=O)c1cccc(NC(=O)c2nn(C(C)(C)C)cc2Cl)c1 [Compound 218]
Ducksalad plant response rating (ducksalad): 0 | Blackgrass plant response rating (blackgrass; 125 g ai/ha): 0 | Blackgrass plant response rating (blackgrass; 500 g ai/ha): 0 | Surinam Grass plant response rating (0 to 100 scale) (Surinam grass; 125 g ai/ha): 0 | Plant response rating, Surinam Grass (Surinam grass; 500 g ai/ha): 0 | Surinam Grass plant response rating (Surinam grass; 125 g ai/ha): 0 | Surinam Grass plant response rating (Surinam grass; 500 g ai/ha): 10 | Velvetleaf plant response rating (0 to 100 scale) (velvetleaf; 125 g ai/ha): 0 | Plant response rating, Velvetleaf (velvetleaf; 500 g ai/ha): 0 | Velvetleaf plant response rating (velvetleaf; 125 g ai/ha): 0 | Velvetleaf plant response rating (velvetleaf; 500 g ai/ha): 0 | Rice plant response rating (0 to 100 scale) (rice [1]): 0 | Plant response rating, Rice (rice [1]): 0 | Crabgrass, Large plant response rating (0 to 100 scale) (large crabgrass; 125 g ai/ha): 0 | Plant response rating, Crabgrass, Large (large crabgrass; 500 g ai/ha): 20 | Crabgrass, Large plant response rating (large crabgrass; 125 g ai/ha): 0 | Crabgrass, Large plant response rating (large crabgrass; 500 g ai/ha): 10 | Lambsquarters plant response rating (0 to 100 scale) (lambsquarters; 125 g ai/ha): 0 | Plant response rating, Lambsquarters (lambsquarters; 500 g ai/ha): 0 | Lambsquarters plant response rating (lambsquarters; 125 g ai/ha): 0 | Lambsquarters plant response rating (lambsquarters; 500 g ai/ha): 10 | Foxtail, Giant plant response rating (0 to 100 scale) (giant foxtail; 125 g ai/ha): 0 | Plant response rating, Foxtail, Giant (giant foxtail; 500 g ai/ha): 0 | Foxtail, Giant plant response rating (giant foxtail; 125 g ai/ha): 0 | Foxtail, Giant plant response rating (giant foxtail; 500 g ai/ha): 0 | Barnyardgrass plant response rating (0 to 100 scale) (barnyardgrass [2]; 125 g ai/ha): 0 | Plant response rating, Barnyardgrass (barnyardgrass [2]; 500 g ai/ha): 0 | Barnyardgrass plant response rating (barnyardgrass [2]; 125 g ai/ha): 0 | Barnyardgrass plant response rating (barnyardgrass [2]; 500 g ai/ha): 0 | Barnyardgrass plant response rating (barnyardgrass [3]): 0 | Oat, Wild plant response rating (wild oat; 125 g ai/ha): 0 | Oat, Wild plant response rating (wild oat; 500 g ai/ha): 0 | Cocklebur plant response rating (0 to 100 scale) (cocklebur; 125 g ai/ha): 0 | Plant response rating, Cocklebur (cocklebur; 500 g ai/ha): 0 | Cocklebur plant response rating (cocklebur; 125 g ai/ha): 0 | Cocklebur plant response rating (cocklebur; 500 g ai/ha): 0 | Corn plant response rating (0 to 100 scale) (corn; 125 g ai/ha): 0 | Plant response rating, Corn (corn; 500 g ai/ha): 0 | Corn plant response rating (corn; 125 g ai/ha): 0 | Corn plant response rating (corn; 500 g ai/ha): 10 | Rice plant response rating (rice [4]): 0 | Wheat plant response rating (wheat; 125 g ai/ha): 0 | Wheat plant response rating (wheat; 500 g ai/ha): 0 | Morningglory plant response rating (0 to 100 scale) (morningglory; 125 g ai/ha, 0 = no effect, 100 = complete control, preemergence): 0 | Plant response rating, Morningglory (morningglory; [6]): 0 | Morningglory plant response rating (morningglory; 125 g ai/ha): 0 | Morningglory plant response rating (morningglory; 500 g ai/ha): 10 | Sedge, Umbrella plant response rating [5]: 20 | Pigweed plant response rating (0 to 100 scale) (pigweed; 125 g ai/ha): 0 | Plant response rating, Pigweed (pigweed; 500 g ai/ha): 0 | Pigweed plant response rating (pigweed; 125 g ai/ha): 0 | Pigweed plant response rating (pigweed; 500 g ai/ha): 20

From patent publication US20060069132A1, “Azolecarboxamide herbicides” (priority 2004, published 2006)
